Test results reported in PubChem BioAssay AID435004 (Broad Institute, 2010).
pEC50: −log10 of the molar value. Inconclusive results are not listed. Calls of active or inactive are those of the source.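 The calls were made as follows: active = EC50 at most a set number of log units above the top tested dose; inconclusive = flat curve fit with activity between 30% and 70%, or poor fit; inactive = EC50 further above the top dose than that.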

Test system: NIH3T3-HGL HSF1 luciferase reporter, MG132, 8 h
Assay: enhancement of HSF1-driven luciferase signal – cell-based, NIH3T3, luminescence, dose retest, confirmation (AID 435004)

**Q.** O=C1CC(c2ccccc2Cl)CC(O)=C1C=Nc1ccccc1 (stereo not drawn) was tested. Which pEC50 did it give?
**A.** The pEC50 was 5.33.

**Q.** For CC(C)CCN=CC1=C(O)CC(c2ccccc2)CC1=O (stereo not drawn), which EC50 is on record?
**A.** Its EC50 is > 26 µM (inactive).

**Q.** With C#CCOCCOCCOCCNc1nc(N2CCN(C(=O)[C@H](Cc3cc4ccccc4[nH]3)n3cc(C(N)CC(C)C)nn3)CC2)nc(N2CCN(C(=O)[C@H](CCC(=O)O)n3cc(C(N)[C@H](C)CC)nn3)CC2)n1 (stereo partly drawn) as the molecule, how does the EC50 read?
**A.** The EC50 was > 26 µM (inactive).
